Measured values taken from ChEMBL document CHEMBL5608200, “Design, synthesis, and evaluation of antitumor activity of 2-arylmethoxy-4-(2-fluoromethyl-biphenyl-3-ylmethoxy) benzylamine derivatives as PD-1/PD-l1 inhibitors” (Eur J Med Chem, 2024).
Activity calls are given as the source filed them. The calls are words filed in the database; no cut-off is given here.

Legend:
[1] = tested on: MDA-MB-231; assay: Induction of T-cell mediated apoptosis in human MDA-MB-231 cells cocultured with PMA-stimulated Jurkat T cells assessed as mortality rate at 4 uM incubated for 48 hrs by CCK-8 assay; type: functional
[2] = Toxicity in PD-1/PD-L1 humanized C57BL/6 mouse implanted with mouse MC38 cells expressing hPD-L1 assessed as weight loss at 50 mg/kg, IG QD administered for 15 days; type: organism-based, MC-38; conditions: in vivo, po, 360 h, time 15 day
[3] = tested on: MDA-MB-231; assay: Induction of T-cell mediated apoptosis in human MDA-MB-231 cells cocultured with PMA-stimulated Jurkat T cells assessed as mortality rate at 16 uM incubated for 48 hrs by CCK-8 assay; type: functional
[4] = tested on: A549; assay: Cytotoxicity against human A549 cells at 1 to 32 uM incubated for 48 hrs by CCK-8 assay; type: functional, cell-based; conditions: dose 1-32 µM
[5] = Tmax in Sprague-Dawley rat at 50 mg/kg, IG measured upto 48 hrs by LC-MS/MS analysis; type: ADME, organism-based; conditions: in vivo, po
[6] = Toxicity in PD-1/PD-L1 humanized C57BL/6 mouse implanted with mouse MC38 cells expressing hPD-L1 assessed as change in heart morphology at 50 mg/kg, IG QD administered for 15 days by H and E staining based inverted fluorescent microscopic assay; type: organism-based, MC-38; conditions: in vivo, po, 360 h, time 15 day
[7] = tested on: MC-38; assay: Antitumor activity against mouse MC38 cells expressing hPD-L1 implanted in PD-1/PD-L1 humanized C57BL/6 mouse assessed as tumor growth inhibition at 50 mg/kg, IG QD administered for 15 days and measured every day by caliper method; type: functional; conditions: MC-38, po, 360 h, time 15 day, read-out: TGI
[8] = AUC(0 to infinity) in Sprague-Dawley rat at 50 mg/kg, IG measured upto 48 hrs by LC-MS/MS analysis; type: ADME, organism-based; conditions: in vivo, po
[9] = Half-life in Sprague-Dawley rat at 50 mg/kg, IG measured upto 48 hrs by LC-MS/MS analysis; type: ADME, organism-based; conditions: in vivo, po
[10] = AUC(0 to t) in Sprague-Dawley rat at 50 mg/kg, IG measured upto 48 hrs by LC-MS/MS analysis; type: ADME, organism-based; conditions: in vivo, po
[11] = tested on: MC-38; assay: Antitumor activity against mouse MC38 cells expressing hPD-L1 implanted in PD-1/PD-L1 humanized C57BL/6 mouse assessed as upregulation of granzyme B expression at 50 mg/kg, IG QD administered for 15 days by immunohistochemistry analysis; type: functional, organism-based; conditions: time 15.0 day
[12] = tested on: HCC827; assay: Induction of T-cell mediated apoptosis in human HCC827 cells cocultured with PMA-stimulated Jurkat T cells assessed as mortality rate at 8 uM incubated for 48 hrs by CCK-8 assay; type: functional
[13] = Clearance in Sprague-Dawley rat at 50 mg/kg, IG measured upto 48 hrs by LC-MS/MS analysis; type: ADME, organism-based; conditions: in vivo, po
[14] = Toxicity in PD-1/PD-L1 humanized C57BL/6 mouse implanted with mouse MC38 cells expressing hPD-L1 assessed as change in liver morphology at 50 mg/kg, IG QD administered for 15 days by H and E staining based inverted fluorescent microscopic assay; type: organism-based, MC-38; conditions: in vivo, po, 360 h, time 15 day
[15] = Tmax in Sprague-Dawley rat at 10 mg/kg, iv measured upto 48 hrs by LC-MS/MS analysis; type: ADME, organism-based; conditions: in vivo
[16] = tested on: HCC827; assay: Induction of T-cell mediated apoptosis in human HCC827 cells cocultured with PMA-stimulated Jurkat T cells assessed as mortality rate at 16 uM incubated for 48 hrs by CCK-8 assay; type: functional

Structure (SMILES): N#Cc1cncc(COc2cc(OCc3cccc(-c4ccc5c(c4)OCCO5)c3C(F)F)ccc2CNCCO)c1
- Activity [1]: 40.6%
- Activity [2]: Non-Toxic
- Activity [3]: 57.1%
- Activity [4]: inactive
- Tmax [5]: 2.38 h
- Activity [6]: Non-Toxic
- inhibition in vivo at 50 mg/kg [7]: 57.3%
- AUC(0-inf) [8]: 42000 ng·h/mL
- t1/2 [9]: 5.52 h
- AUC(0-t) at 48 h [10]: 41800 ng·h/mL
- Activity [11]: Active
- Activity [12]: 51.7%
- CL [13]: 19.8 mL/min/kg
- Activity [14]: Non-Toxic
- Tmax [15]: 7.8 min
- Activity [16]: 59.6%
